Values of other authors as cited in patent US20140228389A1, “DRY POWDER COMPOUND FORMULATIONS AND USES THEREOF” (Wyeth, LLC, priority 2006, published 2014).

Columns and labels:
opioid receptors = details: found in U.S. Ser. No. 11/441,395 and 11/441,452
[1] = white crystalline powder from Mallinckrodt Pharmaceuticals

| SMILES | opioid activity (agonist or antagonist) (opioid receptors) | solubility in water [1] |
| --- | --- | --- |
| C[N+]1(CC2CC2)CCC23c4c5ccc(O)c4OC2C(=O)CCC3(O)C1C5 (single isomer, unassigned) [R—N isomer of methylnaltrexone] | opioid antagonist | – |
| C[N+]1(CC2CC2)CC[C@]23c4c5ccc(O)c4O[C@H]2C(=O)CC[C@@]3(O)[C@H]1C5.[Br-] (stereo partly drawn) [Methylnaltrexone, Methylnaltrexone bromide] | – | freely soluble in water |
| C[N+]1(CC2CC2)CC[C@]23c4c5ccc(O)c4O[C@H]2C(=O)CC[C@@]3(O)[C@H]1C5.[Br-] (stereo partly drawn) [S—N isomer of methylnaltrexone, S-Methylnaltrexone bromide] | opioid agonist | – |
